“And” between values parts separate entries of the source, which are not always exact repeats. Equal entries are not always repeated. Where two headings read alike, the source gives them in different places.
Assays:
[1] = system: Salmonella typhimurium TA 102; assay: Ames test, strain TA 102; details: Positive Control 5 µg/plate
[2] = biological target: SARS-CoV-2 RNA polymerase, nsp12, 7, and 8 (Severe acute respiratory syndrome coronavirus 2, UniProt P0DTD1); assay: SARS-CoV-2 RNA polymerase inhibition assay (pyrophosphate luminescence); format: biochemical
SARS-CoV-2 [3] = assay: Combination of RdRp inhibitors with SARS-CoV-2 nsp14 inhibitors in infected Calu-3 cells, synergy; format: cell-based; parameters: EC99 mean: unit not given here; details: for EC50: Severe acute respiratory syndrome coronavirus 2, Calu-3, read-out: EC50 mean; for EC90: Severe acute respiratory syndrome coronavirus 2, Calu-3, read-out: EC90 mean; for EC99 mean: Calu-3 cells, alone or with nsp14 inhibitor at the concentration of the label, unit not given
SARS-CoV-2 [4] = assay: Cell-associated virus RNA in SARS-CoV-2-infected human primary monocytes; format: cell-based
Experimental: (§1) Human primary monocytes were obtained after 3 h of plastic adherence of peripheral blood mononuclear cells (PBMCs). The use of primary human cell was approved by Institutional Review Board from the Oswaldo Cruz Foundation under protocol 49971421.8.0000.5248 with signed informed consent in accordance with the Hemotherapy Service of Hospital Clementino Fraga from the Federal University of Rio de Janeiro. All volunteers were de-identified. PBMCs were isolated from healthy donors by density gradient centrifugation (Ficoll-Paque, GE Healthcare). PBMCs (2.0 × 10^6 cells) were plated onto 48-well plates (NalgeNunc) in RPMI-1640 without serum for 2–4 h. Nonadherent cells were removed, and the remaining monocytes were maintained in DMEM with 5% human serum (HS; Millipore) and penicillin/streptomycin. The purity of human monocytes was above 95%, as determined by flow cytometric analysis (FACScan; Becton Dickinson) using anti-CD3 (BD Biosciences, cat # 555342, 1:40), anti-CD16 (Southern Biotech, cat # 561313, 1:20) and APC mouse IgG2a isotype (BD Biosciences, cat # 550882, 1/40) and PE mouse IgG1 isotype (BD Biosciences, 555749, 1/20).
Total viral RNA from a culture supernatant and/or monolayers was extracted using QIAamp Viral RNA (Qiagen®) according to the manufacturer’s instructions. Quantitative RT‒PCR was performed using GoTaq® Probe qPCR and RT-qPCR Systems (Promega) in a StepOne™ Real-Time PCR System (Thermo Fisher Scientific) ABI PRISM 7500 Sequence Detection System (Applied Biosystems). Amplifications were carried out in 25 µL reaction mixtures containing 2× reaction mix buffer, […] of each primer, 10 µM of probe, and 5 µL of RNA template. Primers, probes, and cycling conditions recommended by the Centers for Disease Control and Prevention (CDC) protocol were used to detect SARS-CoV-2[52]. The standard curve method was employed for virus quantification. For reference to the cell amounts used, the housekeeping gene RNAse P (F-5′-[…] -3′, R-5′[…] -3′, P-5′-FAM-[…] -BHQ-1-3′) was amplified. The Ct values for this target were compared to those obtained for different cell amounts, 10^7 to 10^2, for calibration.

TNF-α = TNF-α in supernatant of SARS-CoV-2-infected human primary monocytes; format: cell-based
Experimental: as §1

IL-6 = IL-6 in supernatant of SARS-CoV-2-infected human primary monocytes; format: cell-based
Experimental: as §1

SARS-CoV-2 [5] = assay: Genomic and subgenomic viral RNA in infected Calu-3 cells (RT-PCR); format: cell-based
SARS-CoV-2 [6] = assay: Yield-reduction assay, SARS-CoV-2 in Calu-3 cells (titers as PFU/mL in Vero cells)
[7] = infected monocytes, drugs at 10 µM, 24 h, listed as RDV
[8] = Calu-3, 10 µM, 48 h, listed as RDV
[9] = infected Calu-3, compound alone at 10 uM

## Nc1ccc2cc3ccccc3cc2c1 [2-AA, 2-aminoanthracene, reference compound]
[1]
  Mutagenicity TA 102 +S9: +

## O=P(O)(O)OP(=O)(O)OP(=O)(O)OC[C@H]1O[C@@H](n2cnc3c(NCc4ccco4)ncnc32)[C@H](O)[C@@H]1O [801-TP, Kinetin ribose 5’-triphosphate]
[2]
  IC50: 0.1 ± 0.003 µM
  IC50 fold higher than that of GS-443902: 3 fold
[2]; Drug Concentration 0.001
  SARS-CoV-2 RNA polymerase inhibition (Fig2A source data, replicates): 4 and 6 and 8
[2]; Drug Concentration 0.01
  SARS-CoV-2 RNA polymerase inhibition (Fig2A source data, replicates): 4 and 5 (2×)
[2]; Drug Concentration 0.1
  SARS-CoV-2 RNA polymerase inhibition (Fig2A source data, replicates): 53 and 50 and 55
[2]; Drug Concentration 1
  SARS-CoV-2 RNA polymerase inhibition (Fig2A source data, replicates): 60 and 47 and 52
[2]; Drug Concentration 10
  SARS-CoV-2 RNA polymerase inhibition (Fig2A source data, replicates): 70 and 75 and 51

## COC(=O)N[C@H](C(=O)N1CCC[C@H]1c1nc(-c2ccc(-c3ccc(-c4c[nH]c([C@@H]5CCCN5C(=O)[C@@H](NC(=O)OC)C(C)C)n4)cc3)cc2)c[nH]1)C(C)C [Daclatasvir, daclatasvir]
SARS-CoV-2 [3]
  EC50: 0.7 µM
  EC90: 3.8 µM

## NC(=O)c1nc(F)c[nH]c1=O [Favipiravir, favipiravir]
SARS-CoV-2 [3]
  EC50: 7.8 µM

## N#C[C@@]1(c2ccc3c(N)ncnn23)O[C@H](COP(=O)(O)OP(=O)(O)OP(=O)(O)O)[C@@H](O)[C@H]1O [GS-443902]
[2]; Drug Concentration 0.001
  SARS-CoV-2 RNA polymerase inhibition (Fig2A source data, replicates): 3 (2×) and 5
[2]; Drug Concentration 0.01
  SARS-CoV-2 RNA polymerase inhibition (Fig2A source data, replicates): 6 and 40 and 5
[2]; Drug Concentration 0.1
  SARS-CoV-2 RNA polymerase inhibition (Fig2A source data, replicates): 65 and 63 and 80
[2]; Drug Concentration 1
  SARS-CoV-2 RNA polymerase inhibition (Fig2A source data, replicates): 90 (2×) and 53
[2]; Drug Concentration 10
  SARS-CoV-2 RNA polymerase inhibition (Fig2A source data, replicates): 99 and 90 and 75

## CC(C)OC(=O)[C@H](C)NP(=O)(OC[C@H]1O[C@@H](n2cnc3c(NCc4ccco4)ncnc32)[C@H](O)[C@@H]1O)Oc1ccccc1 (stereo partly drawn) [MB-711, Phenyl (Isopropoxy-L-alaninyl) Kinetin Riboside Phosphoramidate]
SARS-CoV-2 [4]
  Cell-associated virus RNA levels in SARS-CoV-2-infected monocytes: reduced cell-associated virus RNA levels in a concentration-dependent manner
  Cell-associated virus RNA loads, inhibition (Fig1C source data, per donor): 2 (2×) and 0 and 32 and 30 and 35 and 40 and 45 and 50
TNF-α
  TNF-α levels in the culture supernatant (Fig1D source data, per donor): 1.6 and 1.8 and 0.638 and 2.6 and 5.0 and 4.1
IL-6
  IL-6 levels in the culture supernatant (Fig1E source data, per donor): 2.2 and 1.8 and 0.121 and 4.3 and 3.4 and 5.0 and 1.5 and 2.9
SARS-CoV-2 [5]
  Genomic viral RNA (Fig2B source data, replicates): 0.3 and 0.45 and 0.2
  Subgenomic viral RNA (Fig2B source data, replicates): 0.6 and 0.8 and 0.5
SARS-CoV-2 [3]
  Virus productive titers (Fig3A source data, replicates): 46000 and 30000 and 28000
  Virus productive titers (Fig3B source data, replicates): 46000 and 30000 and 45000
SARS-CoV-2 [6]
  Inhibition of SARS-CoV-2 infectious titers (Fig1A source data, replicates): 20 and 7 and 28 and 24 and 64 and 23 and 25 and 50 and 33 and 60 and 57 and 42 and 79 (2×) and 81
  Inhibition of SARS-CoV-2 infectious titers (Fig1B source data, replicates): 16 (2×) and 20 and 43 and 73 and 50 and 55 and 71 and 77 (2×) and 80 and 75 and 99 and 97 and 95

## c1coc(CNc2ncnc3c2ncn3C2CCCCO2)c1 (stereo not shown) [MB-906, 6-furfurylamino-9-(tetrahydropyran-2-yl)−9H-purine]
SARS-CoV-2 [6]; huh-7 and calu-3 cells (Supplementary Fig. 2)
  Antiviral activity, SARS-CoV-2 replication: impaired

## COC(=O)N[C@H](C(=O)N1CCC[C@H]1C(=O)Nc1ccc([C@@H]2CC[C@@H](c3ccc(NC(=O)[C@@H]4CCCN4C(=O)[C@@H](NC(=O)OC)C(C)C)cc3)N2c2ccc(C(C)(C)C)cc2)cc1)C(C)C [Ombitasvir, ombitasvir]
SARS-CoV-2 [3]
  EC99 mean: 18
  EC50: 0.4 µM
  EC90: 3.3 µM

## COC(=O)N[C@H](C(=O)N1CCC[C@H]1c1nc2cc([C@H]3CC[C@H](c4cc5nc([C@@H]6CCCN6C(=O)[C@@H](NC(=O)OC)[C@@H](C)OC)[nH]c5cc4F)N3c3cc(F)c(N4CCC(c5ccc(F)cc5)CC4)c(F)c3)c(F)cc2[nH]1)[C@@H](C)OC [Pibrentasvir, pibrentasvir]
SARS-CoV-2 [3]
  EC99 mean: 19
  EC50: 0.7 µM
  EC90: 4.2 µM

## Cc1nnc(C(=O)NC(C)(C)c2nc(C(=O)NCc3ccc(F)cc3)c(O)c(=O)n2C)o1 [RTG, raltegravir]
SARS-CoV-2 [3]
  EC50: 4.8 µM
SARS-CoV-2 [3]; alone at 5 µM, Calu-3
  Effects on SARS-CoV-2 replication: marginal effects
SARS-CoV-2 [3]; infected Calu-3, RTG alone at 5uM
  Virus productive titers (Fig3A source data, replicates): 224000 and 448000

## CCC(CC)COC(=O)[C@H](C)N[P@](=O)(OC[C@H]1O[C@@](C#N)(c2ccc3c(N)ncnn23)[C@H](O)[C@@H]1O)Oc1ccccc1 [Remdesivir, remdesivir, reference compound]
SARS-CoV-2 [4]; Fig. 1c
  Cell-associated virus RNA levels in SARS-CoV-2-infected monocytes: reduced cell-associated virus RNA levels in a concentration-dependent manner
TNF-α; [7]
  TNF-α levels in the culture supernatant (Fig1D source data, per donor): 1.6 and 1.4 and 0.437 and 0.351 and 5.3 and 4.9 and 4.3 and 6.2
IL-6; [7]
  IL-6 levels in the culture supernatant (Fig1E source data, per donor): 2.2 and 1.5 and 3.0 and 4.2 and 2.9 and 1.1
SARS-CoV-2 [5]; [8]
  Genomic viral RNA (Fig2B source data, replicates): 0.221 and 0.22 and 0.2
  Subgenomic viral RNA (Fig2B source data, replicates): 0.07 and 0.05 and 0.09
SARS-CoV-2 [3]
  EC99 mean: 1.1
  EC50: 0.09 µM
  EC90: 0.4 µM
SARS-CoV-2 [6]; Severe acute respiratory syndrome coronavirus 2, Calu-3
  EC50: 0.15 ± 0.03 µM
SARS-CoV-2 [6]; Severe acute respiratory syndrome coronavirus 2, Calu-3, 24 h
  EC50: 0.01 ± 0.003 µM
SARS-CoV-2 [6]; additional treatment at 24 h, Drug 0.001, Calu-3, 48 h, listed as RDV
  Inhibition of SARS-CoV-2 infectious titers (Fig1B source data, replicates): 28 and 35 and 32
SARS-CoV-2 [6]; additional treatment at 24 h, Drug 0.01, listed as RDV
  Inhibition of SARS-CoV-2 infectious titers (Fig1B source data, replicates): 40 and 60 and 50
SARS-CoV-2 [6]; additional treatment at 24 h, Drug 0.1, listed as RDV
  Inhibition of SARS-CoV-2 infectious titers (Fig1B source data, replicates): 80 and 70 and 60
SARS-CoV-2 [6]; additional treatment at 24 h, Drug 1
  Inhibition of SARS-CoV-2 infectious titers (Fig1B source data, replicates): 100
SARS-CoV-2 [6]; additional treatment at 24 h, Drug 10
  Inhibition of SARS-CoV-2 infectious titers (Fig1B source data, replicates): 100
SARS-CoV-2 [6]; one treatment, Drug 0.001, Calu-3, MOI 0.1, 48 h, listed as RDV
  Inhibition of SARS-CoV-2 infectious titers (Fig1A source data, replicates): 12 and 16 and 10
SARS-CoV-2 [6]; one treatment, Drug 0.01, listed as RDV
  Inhibition of SARS-CoV-2 infectious titers (Fig1A source data, replicates): 30 and 50 and 55
SARS-CoV-2 [6]; one treatment, Drug 0.1, listed as RDV
  Inhibition of SARS-CoV-2 infectious titers (Fig1A source data, replicates): 45 and 50 and 72
SARS-CoV-2 [6]; one treatment, Drug 1
  Inhibition of SARS-CoV-2 infectious titers (Fig1A source data, replicates): 100
SARS-CoV-2 [6]; one treatment, Drug 10
  Inhibition of SARS-CoV-2 infectious titers (Fig1A source data, replicates): 100

## CC(C)OC(=O)[C@H](C)N[P@](=O)(OC[C@H]1O[C@@H](n2ccc(=O)[nH]c2=O)[C@](C)(F)[C@@H]1O)Oc1ccccc1 [Sofosbuvir, sofosbuvir]
SARS-CoV-2 [3]; [9]
  Virus productive titers (Fig3A source data, replicates): 64000 and 24000 and 240000
  Virus productive titers (Fig3B source data, replicates): 64000 and 24000 and 240000

## C[C@H](Cn1cnc2c(N)ncnc21)OCP(=O)(O)O [Tenofovir, tenofovir]
SARS-CoV-2 [3]
  EC50: 4.3 µM
SARS-CoV-2 [3]; [9]
  Virus productive titers (Fig3A source data, replicates): 80000 and 88000 and 5000
  Virus productive titers (Fig3B source data, replicates): 80000 and 88000 and 5000

Reference: publication PMC9837764 (Nature Communications, 2023)
